Reference: US4316011A, “Rhodomycin antibiotics” (Sanraku-Ocean Co., Ltd., priority 1979, dated 1982)
Converted amounts (≈) assume the structure as drawn. Where two headings read alike, the source gives them in different places.

Assays:
[1] = system: murine leukemic L 1210 cells; experiment: Growth inhibition of L 1210 cells in culture; type: cell-based; conditions: for IC50: Mus musculus; for growth of murine leukemic cells (in words): murine leukemic L 1210 cells in culture
Protocol: (§1) In an example, L 1210 cells were inoculated in RPMI (Rosewell Park Memorial Institute) 1640 medium containing 20% calf serum at the cell density of 5×10^4 cells/ml, and the compound in the present invention was simultaneously added to the medium at the concentration of 0.1 and 0.5 μg/ml and incubated at 37° C. in a CO2 incubator. 50% growth inhibition concentration of the compound over controls was determined. L 1210 cells as described above were also inoculated at 5×10^5 cells in RPMI 1640 medium containing 10% calf serum and incubated at 37° C. for 1 to 2 hours in a CO2 incubator. The cells were cultured for 15 min. at 37° C. after the compounds according to the present invention at various concentrations were added, and then ^14 C-uridine (0.05 μCi/ml) or ^14 C-thymidine (0.05 μCi/ml) was added and incubated for further 60 min. at 37° C. After stopping the pulse-labeling by addition of 10% trichloroacetic acid (TCA) solution to the reaction mixture, acid-insoluble materials were precipitated, washed three times with 5 to 10% TCA, and dissolved in a small amount of formic acid. Then, radioactivity was determined, and inhibitory effects on the DNA and RNA biosynthesis were indicated by the 50% inhibition concentration (IC50) of the incorporation of radioactivity over controls.

[2] = system: DNA synthesis in murine leukemic L 1210 cells; experiment: DNA biosynthesis in L 1210 cells (14C-thymidine incorporation); type: cell-based; conditions: Mus musculus, L1210, 15 min with compound then 60 min 14C-thymidine, 37° C.
Protocol: as §1

[3] = system: RNA synthesis in murine leukemic L 1210 cells; experiment: RNA biosynthesis in L 1210 cells (14C-uridine incorporation); type: cell-based; conditions: for IC50: Mus musculus, L1210, 15 min with compound then 60 min 14C-uridine, 37° C.; for Inhibition ratio DNA/RNA: ratio of IC50 for DNA synthesis to IC50 for RNA synthesis
Protocol: 50% growth inhibition concentration of the compound over controls was determined. […] The cells were cultured for 15 min. at 37° C. after the compounds according to the present invention at various concentrations were added, and then ^14 C-uridine (0.05 μCi/ml) or ^14 C-thymidine (0.05 μCi/ml) was added and incubated for further 60 min. at 37° C. After stopping the pulse-labeling by addition of 10% trichloroacetic acid (TCA) solution to the reaction mixture, acid-insoluble materials were precipitated, washed three times with 5 to 10% TCA, and dissolved in a small amount of formic acid.

L 1210 leukemia = experiment: Antitumor effect on L 1210 leukemia in mice; type: in vivo, mice (CDF1); conditions: i.p., once daily for 10 days from 24 hours after inoculation of 1×10^6 L 1210 cells i.p.
Protocol: For example, when CDF1 mice weighing 18 to 22 grams were inoculated with 1×10^6 cells of L 1210 cells intraperitoneally and the compound was administered intraperitoneally once daily for 10 days consecutively 24 hours after inoculation, the survival time of mice was over 200% by T/C(%) at optimum dose as shown in the following table.

[4] = Acute toxicity in mice, single intravenous injection; conditions: mouse, in vivo
[5] = L1210, L 1210 cells, RPMI 1640, 20% calf serum, 5×10^4 cells/ml, 37° C., read-out: IC50 Growth

SMILES	IC50 ([1]; L1210, read-out: IC50 Growth) [µg/mL]	growth of murine leukemic cells (in words) [1]	IC50 [2] [µg/mL]	RNA synthesis of L 1210 cells (in words) [3]	IC50 [3] [µg/mL]	Inhibition ratio DNA/RNA [3]	T/C (survival time) (L 1210 leukemia; opt. dose 2 mg/kg/day) [%]	LD50 [4] [mg/kg]	IC50 [1, 5] [µg/mL]	T/C (survival time) (L 1210 leukemia; opt. dose 20 mg/kg/day) [%]	T/C (survival time) (L 1210 leukemia; opt. dose 1 mg/kg/day) [%]
CCC1(O)CC(OC2CC(N(C)C)C(OC3CC(O)C(OC4CCC(=O)C(C)O4)C(C)O3)C(C)O2)c2c(O)c3c(c(O)c2C1C(=O)OC)C(=O)c1c(O)ccc(O)c1C3=O (stereo not shown) [ε-Isorhodomycin RDC]	0.007 (≈ 0.0083 µM)	suppressed the growth of murine leukemic cells at extremely low concentration	1.25 (≈ 1.48 µM)	inhibited specifically RNA synthesis of L 1210 cells	0.11 (≈ 0.13 µM)	11.1	235	28.2			
CCC1(O)CC(OC2CC(N(C)C)C(OC3CC(O)C(OC4CCC(=O)C(C)O4)C(C)O3)C(C)O2)c2c(O)c3c(c(O)c2C1C(=O)OC)C(=O)c1cccc(O)c1C3=O (stereo not shown) [ε-Rhodomycin RDC]	0.01 (≈ 0.0121 µM)	suppressed the growth of murine leukemic cells at extremely low concentration	0.7 (≈ 0.846 µM)	inhibited specifically RNA synthesis of L 1210 cells	0.08 (≈ 0.0966 µM)	8.8	240	32.5			
CCC1(O)CCc2c(O)c3c(c(O)c2C1OC1CC(N(C)C)C(OC2CC(O)C(OC4CCC(O)C(C)O4)C(C)O2)C(C)O1)C(=O)c1cccc(O)c1C3=O (stereo not shown) [γ-Rhodomycin RDRs]			0.7 (≈ 0.907 µM)		0.3 (≈ 0.389 µM)	2.3	203	40.6	0.09 (≈ 0.117 µM)		
CCC1(O)CC(OC2CC(N(C)C)C(OC3CC(O)C(OC4CCC(=O)C(C)O4)C(C)O3)C(C)O2)c2c(cc3c(c2O)C(=O)c2c(O)ccc(O)c2C3=O)C1O (stereo not drawn) [β-Pyrromycin RDC]			2 (≈ 2.55 µM)		1.5 (≈ 1.91 µM)	1.3		85.5	1 (≈ 1.27 µM)	202	
CCC1(O)CCc2c(O)c3c(c(O)c2C1OC1CC(N(C)C)C(OC2CC(O)C(OC4CCC(=O)C(C)O4)C(C)O2)C(C)O1)C(=O)c1cccc(O)c1C3=O (stereo not shown) [γ-Rhodomycin RDC]			0.85 (≈ 1.1 µM)		0.28 (≈ 0.364 µM)	3.0	209	39.8	0.11 (≈ 0.143 µM)		
COc1cccc2c1C(=O)c1c(O)c3c(c(O)c1C2=O)C[C@@](O)(C(=O)CO)C[C@@H]3O[C@H]1C[C@H](N)[C@H](O)[C@H](C)O1 [Adriamycin, reference compound]								14.2			286
CCC1(O)CC(OC2CC(N(C)C)C(OC3CC(O)C(OC4CCC(=O)C(C)O4)C(C)O3)C(C)O2)c2c(O)c3c(c(O)c2C1O)C(=O)c1cccc(O)c1C3=O (stereo not drawn) [β-Rhodomycin RDC]		suppressed the growth of murine leukemic cells at extremely low concentration	0.57 (≈ 0.725 µM)		0.15 (≈ 0.191 µM)	3.8	306	28	0.01 (≈ 0.0127 µM)		
